Counter-ions that a name gives are not always drawn.
melting point	SMILES
232 to 244 °C	Cc1cc2c(N3CCc4c(Br)ccc(C)c43)ncnc2cn1.Cl
212 to 229 °C	Cc1cc2c(N3CCc4ccc(Br)c(C)c43)ncnc2cn1.Cl
262 to 264 °C	Cc1cc2c(N3CCc4cc(F)c(Br)cc43)ncnc2cn1.Cl
233 to 235 °C	C#Cc1cccc(Nc2ncnc3cnccc23)c1 (as salt: hydrochloride) [Example 24, (3-Ethynyl-phenyl)-pyrido[3,4-d]pyrimidin-4-yl-amine]
280 to 282 °C	c1cc2c(Nc3ccc4sccc4c3)ncnc2cn1 (as salt: hydrochloride) [Example 25, Benzo[b]thiophen-5-yl-pyrido[3,4-d]pyrimidin-4-yl-amine]
194 to 196 °C	Clc1ccc2c(c1)N(c1ncnc3cnccc13)CC2 [Example 5, 4-(6-Chloro-2,3dihydro-indol-1-yl)-pyrido[3,4-d]pyrimidine]
250 °C (dec.)	Oc1cc2ncnc(N3CCc4ccc(Cl)cc43)c2[nH]1 [Example 10, 4-(6Chloro-2,3dihydro-indol-1-yl)-5H-pyrrolo[3,2-d]pyrimidin-6-ol]
240 to 241 °C	C#Cc1cccc(Nc2ncnc3c2ccn3CCOCCOC)c1 [Example 13, (3-Ethynyl-phenyl)-{7-[2-(2-methoxy-ethoxy)-ethyl]-7H-pyrrolo[2,3-d]pyrimidin4-yl}amine]
232 to 234 °C	Cc1cc2c(N3CCc4ccc(Cl)cc43)ncnc2cn1 [Example 16, 4-(6Chloro-2,3-dihydro-indol-1-yl)-6methyl-pyrido[3,4-d]pyrimidine]
230 to 232 °C	C#Cc1cccc(Nc2ncnc3[nH]cc(-c4cccs4)c23)c1 [Example 27, (3-Ethynyl-phenyl)-(5-thiophen-2-yl-7H-pyrrolo[2,3-d]pyrimidin4-yl]-amine]

— US6413971B1, “Fused bicyclic pyrimidine derivatives” (Pfizer Inc, priority 1996, dated 2002)
